Data taken from PMC12663132, “Assessment of cytotoxicity of some synthetic compounds against breast carcinoma spheroids with subsequent analysis of pro-apoptotic and gene expression” (Scientific Reports, 2025).

Columns and labels:
MCF7 = experiment: Cytotoxicity on MCF7 monolayers (MTT assay); details: Homo sapiens, MCF7, 72 h, read-out: Mean of % cytotoxicity ± SD
Protocol: (§1) Eighty pre-plated synthetic chemical compounds were screened on two human cell lines: MCF7 (ATCC® HTB-22™), a Caucasian breast adenocarcinoma model, and hTERT-RPE-1 (ATCC® CRL-4000™), a normal retinal epithelial cell line immortalized by hTERT telomerase. […] The cells were cultured in DMEM-F12 medium supplemented with L-glutamine and 10% fetal bovine serum, all were purchase from Biowest (Biotechnology company in Nuaillé, France), and maintained in a controlled incubator environment set at 37 °C with 5% CO2 and 95% humidity.
MCF7 cells were seeded in flat-bottom 96-well plates with a concentration of 20,000 cells/well, and were left overnight. The compounds were tested at a final concentration of 50 µM. Doxorubicin was used as a positive control and 0.5% DMSO as a negative control. The treatment duration was 72 h. The cytotoxicity was then assessed using the MTT assay, as described by Mosmann[43].

MCF7 3D spheroids = experiment: Cytotoxicity on MCF7 3D multicellular spheroids (acid phosphatase method); details: Homo sapiens, MCF7, 120 h, read-out: Mean of % cytotoxicity ± S.D
Protocol: as §1
3-D spheroid models were generated from MCF7 cancer and hTERT-RPE1 normal cells were seeded at 10,000 and 50,000 cells/well, respectively, in poly-HEMA coated round bottom plates according to the protocol previously mentioned[44]. The cells were incubated for 5 days to generate the spheroids with diameter of 500 ± 20 µm. The spheroids were imaged using Olympus S100, U-CMAD3 camera connected to Olympus inverted microscope and the diameter of the spheroids was measured using Cellscen-Entry software. Test compounds were added in triplicate to a final concentration of 50 µM and were incubated for 120 h. […] At the end of incubation, cytotoxicity was determined using the acid phosphatase method[45]. After washing twice with 250 μL PBS buffer, 100 μL of 0.1 M sodium citrate, 0.1% Triton X-100, p-nitrophenylphosphate (2 mg/ml) (Pierce Biotechnology Inc., Rockford, IL) was added to each well and incubated for 1.5 h at 37 °C. After incubation, 10 μL of 1N NaOH stop solution was added to each well, and absorbance was read at 405 nm. Cytotoxicity was calculated according to the following equation:

COc1cc(-n2c(SC)nc3ccccc3c2=O)c(OC)cc1Cl [A02, 3-(4-chloro-2,5-dimethoxyphenyl)-2-(methylthio)-3,4-dihydroquinazolin-4-one]
cytotoxicity at 50 µM (MCF7): 94.3 ± 0.06%
cytotoxicity at 50 µM (MCF7 3D spheroids): 67.1 ± 3.3%

Cc1nn(-c2ccccc2)nc1C(=O)Nc1cc(Cl)cc(Cl)c1 [A03, N4-(3,5-dichlorophenyl)-5-methyl-2-phenyl-2H-1,2,3-triazole-4-carboxamide]
cytotoxicity at 50 µM (MCF7): 94.2 ± 0.65%
cytotoxicity at 50 µM (MCF7 3D spheroids): 39.1 ± 0.24%

O=[N+]([O-])c1ccc(N2CCC(n3cccc3)CC2)cc1 [A04, 1-(4-nitrophenyl)-4-(1H-pyrrol-1-yl)piperidine]
cytotoxicity at 50 µM (MCF7): 2.5 ± 0.35%
cytotoxicity at 50 µM (MCF7 3D spheroids): 43.1 ± 0.23%

CCOC(=O)c1cnn(C(=O)c2snnc2C)c1N [A05, Ethyl 5-amino-1-[(4-methyl-1,2,3-thiadiazol-5-yl)carbonyl]-1H-pyrazole-4-carboxylate]
cytotoxicity at 50 µM (MCF7): 62.3 ± 2.5%
cytotoxicity at 50 µM (MCF7 3D spheroids): 49 ± 0.8%

Nc1ccc(-c2ccc(N)c([N+](=O)[O-])c2)cc1[N+](=O)[O-] [A06, 3,3'-dinitro[1,1'-biphenyl]-4,4'-diamine]
cytotoxicity at 50 µM (MCF7): 82.4 ± 0.41%
cytotoxicity at 50 µM (MCF7 3D spheroids): 60.8 ± 1%

O=C(O)c1nccnc1C(=O)Nc1ccccc1N1CCOCC1 [A08, 3-[(2-morpholinoanilino)carbonyl]-2-pyrazinecarboxylic acid]
cytotoxicity at 50 µM (MCF7): 17.2 ± 1%
cytotoxicity at 50 µM (MCF7 3D spheroids): 49.3 ± 0.53%

O=C(Nc1cc(-c2ccccc2)n[nH]1)C1COc2ccccc2O1 (centres unmarked) [A09, N2-(3-phenyl-1H-pyrazol-5-yl)-2,3-dihydro-1,4-benzodioxine-2-carboxamide]
cytotoxicity at 50 µM (MCF7): 100 ± 0.003%
cytotoxicity at 50 µM (MCF7 3D spheroids): 52.2 ± 1.9%

CCCS(=O)(=O)c1cscc1NC(=O)c1c(-c2c(F)cccc2Cl)noc1C [A10, N4-[4-(propylsulfonyl)-3-thienyl]-3-(2-chloro-6-fluorophenyl)-5-methylisoxazole-4-carboxamide]
cytotoxicity at 50 µM (MCF7): 53.8 ± 4.9%
cytotoxicity at 50 µM (MCF7 3D spheroids): 68.6 ± 1.1%

Clc1ccc(CSc2ncnc3c2sc2nnc(-c4ccccc4)c(-c4ccccc4)c23)cc1 [A11, 8-[(4-chlorobenzyl)sulfanyl]-3,4-diphenylpyrimido [4',5':4,5]thieno[2,3-c]pyridazine]
cytotoxicity at 50 µM (MCF7): 44.2 ± 1.6%
cytotoxicity at 50 µM (MCF7 3D spheroids): 46.4 ± 1.3%

CCOC(=O)c1ccc(-n2c(=S)[nH]c3ccccc32)cc1 [B02, ethyl 4-(2-thioxo-2,3-dihydro-1H-benzimidazol-1-yl)benzoate]
cytotoxicity at 50 µM (MCF7): 100 ± 0.003%
cytotoxicity at 50 µM (MCF7 3D spheroids): 35.7 ± 1.8%

O=C(NCCc1ccncc1)C(F)(F)F [B03, N1-[2-(4-pyridyl)ethyl]-2,2,2-trifluoroacetamide]
cytotoxicity at 50 µM (MCF7): 0%
cytotoxicity at 50 µM (MCF7 3D spheroids): 25.5 ± 0.11%

Cc1ncc(CO)c(C=NO)c1O [B04, 3-hydroxy-5-(hydroxymethyl)-2-methylisonicotinaldehyde oxime]
cytotoxicity at 50 µM (MCF7): -58.5 ± 0.003%
cytotoxicity at 50 µM (MCF7 3D spheroids): 49.3 ± 0.35%

COC(=O)C(C#N)=Cc1cccn1-c1ccc(C(F)(F)F)cc1 [B05, methyl 2-cyano-3-{1-[4-(trifluoromethyl)phenyl]-1H-pyrrol-2-yl}acrylate]
cytotoxicity at 50 µM (MCF7): 91.3 ± 0.6%
cytotoxicity at 50 µM (MCF7 3D spheroids): 42.1 ± 1.9%

CC(=O)Cc1nsc(Nc2ccccc2)n1 [B06, 1-(5-anilino-1,2,4-thiadiazol-3-yl)acetone]
cytotoxicity at 50 µM (MCF7): 14.8 ± 2.6%
cytotoxicity at 50 µM (MCF7 3D spheroids): 20.4 ± 0.35%

CC(C)=NOC(=O)c1scc(S(C)(=O)=O)c1Cl [B07, 3-chloro-2-({[(1methylethylidene)amino]oxy}carbonyl)-4-(methylsulfonyl)thiophene]
cytotoxicity at 50 µM (MCF7): 0%
cytotoxicity at 50 µM (MCF7 3D spheroids): 34.9 ± 1.7%

c1cc2c(cc1N=C1SCC3CCCCN13)OCO2 (centres unmarked) [B08, N-hexahydro[1,3]thiazolo[3,4-a]pyridin-3-ylidene-1,3-benzodioxol-5-amine]
cytotoxicity at 50 µM (MCF7): 8.5 ± 0.47%
cytotoxicity at 50 µM (MCF7 3D spheroids): 53.1 ± 0.6%

O=C1NC(=O)C(=Cc2ccncc2)C(=O)N1 [B09, 5-(4-pyridylmethylidene)hexahydropyrimidine-2,4,6-trione]
cytotoxicity at 50 µM (MCF7): 12.3 ± 0.7%
cytotoxicity at 50 µM (MCF7 3D spheroids): 59.2 ± 1.2%

COc1cccc2c1C(=O)c1c(O)c3c(c(O)c1C2=O)C[C@@](O)(C(=O)CO)C[C@@H]3O[C@H]1C[C@H](N)[C@H](O)[C@H](C)O1 [doxorubicin, reference compound]
cytotoxicity at 50 µM (MCF7): 57.6 ± 2.1%
